From patent US9422293B2 (priority 2006, dated 2016)
Where a name gives a salt, the structure may show the parent alone.

Biological target: T1, rat TRPV1 (Rattus norvegicus (Rat), UniProt O35433)
Assay: cell-based
Details: Rat IC50 (μM)

T1 sequence (O35433 whole entry): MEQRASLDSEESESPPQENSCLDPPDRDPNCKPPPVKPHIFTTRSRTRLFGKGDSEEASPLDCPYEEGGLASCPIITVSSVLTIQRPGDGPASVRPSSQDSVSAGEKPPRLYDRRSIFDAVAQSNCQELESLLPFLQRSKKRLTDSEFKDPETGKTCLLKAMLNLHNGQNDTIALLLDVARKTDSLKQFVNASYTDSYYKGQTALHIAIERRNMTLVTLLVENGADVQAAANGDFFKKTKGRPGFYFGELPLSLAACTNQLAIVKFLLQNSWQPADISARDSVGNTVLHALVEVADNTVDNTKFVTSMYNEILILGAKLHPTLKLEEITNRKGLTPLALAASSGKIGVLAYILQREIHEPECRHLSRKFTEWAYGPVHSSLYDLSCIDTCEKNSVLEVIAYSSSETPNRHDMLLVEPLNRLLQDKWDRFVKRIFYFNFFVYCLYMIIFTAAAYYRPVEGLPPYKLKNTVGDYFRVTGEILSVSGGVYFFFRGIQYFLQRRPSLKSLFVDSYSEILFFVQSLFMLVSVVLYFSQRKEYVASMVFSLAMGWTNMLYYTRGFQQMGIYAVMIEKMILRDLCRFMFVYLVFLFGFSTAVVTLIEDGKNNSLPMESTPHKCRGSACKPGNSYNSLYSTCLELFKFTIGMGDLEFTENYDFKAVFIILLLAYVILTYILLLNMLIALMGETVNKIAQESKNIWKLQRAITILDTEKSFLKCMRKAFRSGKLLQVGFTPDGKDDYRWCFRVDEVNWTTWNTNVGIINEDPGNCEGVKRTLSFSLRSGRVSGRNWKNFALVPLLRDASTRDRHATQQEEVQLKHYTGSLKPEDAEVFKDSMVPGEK

Row | SMILES | IC50
1 | CC(C)c1nc2c(c(Nc3ccc(Br)cc3)n1)CCN(c1ncccc1C(F)(F)F)CC2 [Example 46, (4-Bromo-phenyl)-[2-isopropyl-7-(3-trifluoromethyl-pyridin-2-yl)-6,7,8,9-tetrahydro-5H-pyrimido[4,5-d]azepin-4-yl]-amine] | 0.38 µM
3 | COC(=O)c1cnc(N2CCc3nc(S(C)(=O)=O)nc(Nc4ccc(C(F)(F)F)cc4)c3CC2)c(Cl)c1 [Example 211, Methyl 5-chloro-6-[2-(methylsulfonyl)-4-{[4-(trifluoromethyl)phenyl]amino}-5,6,8,9-tetrahydro-7H-pyrimido[4,5-d]azepin-7-yl]pyridine-3-carboxylate] | 11.4 µM
4 | FC(F)(F)c1ccc(Nc2nc(NC3CCOC3)nc3c2CCN(c2ncccc2C(F)(F)F)CC3)cc1 (centres unmarked) [Example 265, N^2-(Tetrahydro-furan-3-yl)-N^4-(4-trifluoromethyl-phenyl)-7-(3-trifluoromethyl-pyridin-2-yl)-6,7,8,9-tetrahydro-5H-pyrimido[4,5-d]azepine-2,4-diamine trifluoroacetic acid salt] | 0.39 µM
6 | Cc1nc(-c2nc3c(c(Nc4ccc(C(F)(F)F)cc4)n2)CCN(c2ncccc2C(F)(F)F)CC3)cs1 [Example 153, 2-(2-Methyl-1,3-thiazol-4-yl)-N-[4-(trifluoromethyl)phenyl]-7-[3-(trifluoromethyl)pyridin-2-yl]-6,7,8,9-tetrahydro-5H-pyrimido[4,5-d]azepin-4-amine trifluoroacetic acid salt] | 0.14 µM
7 | CC(C)(C)c1ccc(Nc2nc(C(C)(C)C)nc3c2CCN(c2ncccc2C(F)(F)F)CC3)cc1 [Example 138, 2-(1,1-Dimethylethyl)-N-[4-(1,1-dimethylethyl)phenyl]-7-[3-(trifluoromethyl)pyridin-2-yl]-6,7,8,9-tetrahydro-5H-pyrimido[4,5-d]azepin-4-amine] | 0.03 µM

Biological target: T1, rat TRPV1
Assay: not given
Details: read-out: Rat IC50

Row | SMILES | IC50
9 | Cc1cc(C(F)(F)F)ccc1Nc1nc(OC2CCCC2)nc2c1CCN(c1ncccc1C(F)(F)F)CC2 [Example 310, 2-(Cyclopentyloxy)-N-[2-methyl-4-(trifluoromethyl)phenyl]-7-[3-(trifluoromethyl)pyridin-2-yl]-6,7,8,9-tetrahydro-5H-pyrimido[4,5-d]azepin-4-amine] | 70 nM
10 | CCCCOc1nc2c(c(Nc3ccc(C(F)(F)F)nc3)n1)CCN(c1ncccc1C(F)(F)F)CC2 [Example 327, 2-(Butyloxy)-7-[3-(trifluoromethyl)pyridin-2-yl]-N-[6-(trifluoromethyl)pyridin-3-yl]-6,7,8,9-tetrahydro-5H-pyrimido[4,5-d]azepin-4-amine] | 890 nM
11 | Cc1cnc(Nc2nc(C(C)C)nc3c2CCN(c2ncccc2C(F)(F)F)CC3)cn1 [Example 187, 2-(1-Methylethyl)-N-(5-methylpyrazin-2-yl)-7-[3-(trifluoromethyl)pyridin-2-yl]-6,7,8,9-tetrahydro-5H-pyrimido[4,5-d]azepin-4-amine hydrochloride salt] | 2850 nM
12 | FC(F)(F)c1ccc(Nc2nc(N3CCN(Cc4ccccc4)CC3)nc3c2CCN(c2ncccc2C(F)(F)F)CC3)cc1 [Example 102, [2-(4-Benzyl-piperazin-1-yl)-7-(3-trifluoromethyl-pyridin-2-yl)-6,7,8,9-tetrahydro-5H-pyrimido[4,5-d]azepin-4-yl]-(4-trifluoromethyl-phenyl)-amine] | 170 nM
13 | CSc1nc2c(c(Nc3ccc4c(c3)N(C)CCC4)n1)CCN(c1ncccc1C(F)(F)F)CC2 [Example 205, 2-(Methylsulfanyl)-N-(1-methyl-1,2,3,4-tetrahydroquinolin-7-yl)-7-[3-(trifluoromethyl)pyridin-2-yl]-6,7,8,9-tetrahydro-5H-pyrimido[4,5-d]azepin-4-amine] | 2280 nM
14 | FC(F)(F)c1ccc(Nc2ncnc3c2CCN(c2ncccc2C(F)(F)F)CC3)cc1 [Example 2, (4-Trifluoromethyl-phenyl)-[7-(3-trifluoromethyl-pyridin-2-yl)-6,7,8,9-tetra-hydro-5H-pyrimido[4,5-d]azepin-4-yl]-amine] | 790 nM
